From patent US4058659A, “6,8-Disubstituted purine derivatives of 9-β-D-ribofuranosyl 3',5'-cyclic phosphate” (ICN Pharmaceuticals, Inc., priority 1975, dated 1977)
Structures can show the parent of a compound that is named as a salt.

Legend:
[1] = system: isolated cat papillary muscle; assay: Positive inotropic effect: % change in contractile force in isolated cat papillary muscle; conditions: for positive inotropic effect: statement in words, isolated cat papillary muscle; for activation at 1 µg/mL / activation at 3.1 µg/mL / activation at 10 µg/mL / activation at 31 µg/mL / activation at 100 µg/mL / activation at 310 µg/mL: Felis catus, read-out: % change in Contractile Force (CF)
[2] = system: intact anesthetized dog (myocardial contractility); assay: In vivo positive inotropic effect (dP/dT max) in the intact anesthetized dog; conditions: i.v. infusion 1 mg/kg per min
Procedure: (§1) The measurement dP/dT max was used as the index of change in myocardial contractility (inotropism). Compound 12 was given as an intravenous infusion at the rate of 1 mg/kg per min. in total single doses of 1.0 to 10.0 mg/kg and the values are expresses as percent of control.
In Vivo Positive Inotropic Effect
Measurement of myocardial contractility (inotropism)
using dP/dT max (% of control) as index of measurement of inotropic

unanesthetized dogs = assay: Inotropic effect in unanesthetized dogs; assay type: in vivo, dog; conditions: compared with anesthetized dogs
Procedure: as §1

[3] = system: renal and mesenteric blood flow; assay: Renal and mesenteric blood flow in anesthetized dogs; assay type: in vivo, dog
protein kinase = assay: Protein kinase activation relative to cyclic AMP; assay type: biochemical; conditions: compared with cyclic AMP
adenyl cyclase = assay: Inhibition of adenyl cyclase function; assay type: biochemical
phosphodiesterase = assay: Phosphodiesterase inhibition; assay type: biochemical
[4] = Antihypertensive properties in in vivo animal testing
[5] = Anti-inflammatory activity in in vivo animal testing

Question: For “8-(Benzylthio)-6-(diethylamino)-9-β-D-ribofuranosylpurine 3',5'-CyclicPhosphate [Compound 12]”, which “% change in Contractile Force (CF)” value ([1]; 1.0 μg/ml) is on record?
Answer: The value was 3.8%.

Question: And the “% change in Contractile Force (CF)” value ([1]; 3.1 μg/ml)?
Answer: Its value is 8.0%.

Question: What about the “% change in Contractile Force (CF)” value ([1]; 10.0 μg/ml) of the same compound?
Answer: The value was 12.7%.

Question: What about the “% change in Contractile Force (CF)” value ([1]; 31.0 μg/ml) of the same compound?
Answer: Its value is 27.0%.

Question: And the “% change in Contractile Force (CF)” value ([1]; 100 μg/ml)?
Answer: Its value is 46.0%.

Question: What about the “% change in Contractile Force (CF)” value ([1]; 310 μg/ml) of the same compound?
Answer: The value was 56.0%.

Question: And the positive inotropic effect [1]?
Answer: The positive inotropic effect was “exhibit positive inotropic effect”.

Question: What about the “dP/dT max (% of control)” value ([2]; 1.0 mg/kg, 1 minute after infusion) of the same compound?
Answer: The value was 120%.

Question: And the “dP/dT max (% of control)” value ([2]; 1.0 mg/kg, 3 minutes after infusion)?
Answer: Its value is 120%.

Question: What about the “dP/dT max (% of control)” value ([2]; 1.0 mg/kg, 5 minutes after infusion) of the same compound?
Answer: Its value is 130%.

Question: And the “dP/dT max (% of control)” value ([2]; 1.0 mg/kg, 15 minutes after infusion)?
Answer: Its value is 110%.

Question: And the “dP/dT max (% of control)” value ([2]; 3.1 mg/kg, 1 minute after infusion)?
Answer: The value was 200%.

Question: And the “dP/dT max (% of control)” value ([2]; 3.1 mg/kg, 3 minutes after infusion)?
Answer: The value was 180%.

Question: And the “dP/dT max (% of control)” value ([2]; 3.1 mg/kg, 5 minutes after infusion)?
Answer: The value was 160%.

Question: And the “dP/dT max (% of control)” value ([2]; 3.1 mg/kg, 15 minutes after infusion)?
Answer: The value was 140%.

Question: What about the “dP/dT max (% of control)” value ([2]; 3.1 mg/kg, 30 minutes after infusion) of the same compound?
Answer: Its value is 105%.

Question: What about the “dP/dT max (% of control)” value ([2]; 10.0 mg/kg, 1 minute after infusion) of the same compound?
Answer: Its value is 210%.

Question: What about the “dP/dT max (% of control)” value ([2]; 10.0 mg/kg, 3 minutes after infusion) of the same compound?
Answer: The value was 200%.

Question: And the “dP/dT max (% of control)” value ([2]; 10.0 mg/kg, 5 minutes after infusion)?
Answer: The value was 180%.

Question: What about the “dP/dT max (% of control)” value ([2]; 10.0 mg/kg, 15 minutes after infusion) of the same compound?
Answer: The value was 140%.

Question: What about the “dP/dT max (% of control)” value ([2]; 10.0 mg/kg, 30 minutes after infusion) of the same compound?
Answer: Its value is 100%.

Question: What about the “inotropic effect in unanesthetized dogs” value (unanesthetized dogs) of the same compound?
Answer: Its value is “same inotropic effect”.

Question: What about the mesenteric blood flow [3] of the same compound?
Answer: Its mesenteric blood flow is “increase in renal and mesenteric blood flow”.

Question: And the renal blood flow [3]?
Answer: Its renal blood flow is “increase in renal and mesenteric blood flow”.

Question: For `CC(=O)O[C@@H]1[C@@H]2OP(=O)(O)OC[C@H]2O[C@H]1n1c(Cl)nc2c(Cl)ncnc21` [Compound 2a, 2'-O-Acetyl-6,8-dichloro-9-β-D-ribofuranosylpurine 3',5'-Cyclic Phosphate Sodium Salt], which protein kinase activation (protein kinase) is on record?
Answer: Its protein kinase activation is “superior to cyclic AMP”.

Question: And the “inhibition of adenyl cyclase function” value (adenyl cyclase)?
Answer: The value was “inhibit adenyl cyclase function”.

Question: Which protein kinase activation (protein kinase) does the source give for `CCCC(=O)O[C@@H]1[C@@H]2OP(=O)(O)OC[C@H]2O[C@H]1n1c(Cl)nc2c(Cl)ncnc21` [Compound 2b, 2'-O-Butyryl-6,8-dichloro-9-β-D-ribofuranosylpurine 3',5'-Cyclic Phosphate Sodium Salt] here?
Answer: The protein kinase activation was “superior to cyclic AMP”.

Question: What about the “inhibition of adenyl cyclase function” value (adenyl cyclase) of the same compound?
Answer: Its value is “inhibit adenyl cyclase function”.

Question: With `Nc1nc2c(Cl)ncnc2n1[C@@H]1O[C@@H]2COP(=O)(O)O[C@H]2[C@H]1O` [Compound 4, 8-Amino-6-chloro-9-β-D-ribofuranosylpurine 3',5'-Cyclic Phosphate] as the compound, how does the inhibition of phosphodiesterase (phosphodiesterase) read?
Answer: The inhibition of phosphodiesterase was “inhibit phosphodiesterase markedly”.

Question: What about the protein kinase activation (protein kinase) of the same compound?
Answer: The protein kinase activation was “superior to cyclic AMP”.

Question: With `CCN(CC)c1ncnc2c1nc(Cl)n2[C@@H]1O[C@@H]2COP(=O)(O)O[C@H]2[C@H]1O` [Compound 9, 8-Chloro-6-(diethylamino)-9-β-D-ribofuranosylpurine 3',5'-Cyclic Phosphate] as the compound, how does the inhibition of phosphodiesterase (phosphodiesterase) read?
Answer: Its inhibition of phosphodiesterase is “inhibit phosphodiesterase markedly”.

Question: What about the protein kinase activation (protein kinase) of the same compound?
Answer: Its protein kinase activation is “superior to cyclic AMP”.

Question: Which inhibition of phosphodiesterase (phosphodiesterase) does the source give for `CCN(CC)c1ncnc2c1nc(N(CC)CC)n2[C@@H]1O[C@@H]2COP(=O)(O)O[C@H]2[C@H]1O` [Compound 11, 6,8-Bis-(diethylamino)-9-β-D-ribofuranosylpurine 3',5'-Cyclic Phosphate] here?
Answer: Its inhibition of phosphodiesterase is “inhibit phosphodiesterase markedly”.

Question: What about the “inhibition of adenyl cyclase function” value (adenyl cyclase) of the same compound?
Answer: Its value is “inhibit adenyl cyclase function”.

Question: And the antihypertensive properties [4]?
Answer: The antihypertensive properties was “displayed antihypertensive properties”.

Question: What does the source list for `O=P1(O)OC[C@H]2O[C@@H](n3c(SCc4ccccc4)nc4c(N5CCCCC5)ncnc43)[C@H](O)[C@@H]2O1` [Compound 16, 8-(Benzylthio)-6-piperidino-9-β-D-ribofuranosylpurine 3',5'-Cyclic Phosphate]?
Answer: inhibition of phosphodiesterase (phosphodiesterase): inhibit phosphodiesterase markedly; inhibition of adenyl cyclase function (adenyl cyclase): inhibit adenyl cyclase function; anti-inflammatory activity [5]: displayed anti-inflammatory activity

Question: What does the source list for `CCCCNc1ncnc2c1nc(SCc1ccccc1)n2[C@@H]1O[C@@H]2COP(=O)(O)O[C@H]2[C@H]1O` [Compound 17, 8-(Benzylthio)-6-(n-butylamino)-9-β-D-ribofuranosylpurine 3',5'-CyclicPhosphate]?
Answer: activation at 1 µg/mL ([1]; 1.0 μg/ml): 7.5%; activation at 3.1 µg/mL ([1]; 3.1 μg/ml): 10%; activation at 10 µg/mL ([1]; 10.0 μg/ml): 19.3%; activation at 31 µg/mL ([1]; 31.0 μg/ml): 24%; activation at 100 µg/mL ([1]; 100 μg/ml): 30%; activation at 310 µg/mL ([1]; 310 μg/ml): 39%; positive inotropic effect [1]: exhibit positive inotropic effect; inhibition of phosphodiesterase (phosphodiesterase): inhibit phosphodiesterase markedly

Question: Which activation at 1 µg/mL ([1]; 1.0 μg/ml) does the source give for `CCNc1ncnc2c1nc(SCc1ccccc1)n2[C@@H]1O[C@@H]2COP(=O)(O)O[C@H]2[C@H]1O` [Compound 19, 8-(Benzylthio)-6-(ethylamino)-9-β-D-ribofuranosylpurine 3',5'-Cyclic Phosphate] here?
Answer: The activation at 1 µg/mL was 9%.

Question: What about the activation at 3.1 µg/mL ([1]; 3.1 μg/ml) of the same compound?
Answer: The activation at 3.1 µg/mL was 11%.

Question: What about the activation at 10 µg/mL ([1]; 10.0 μg/ml) of the same compound?
Answer: Its activation at 10 µg/mL is 17%.

Question: And the activation at 31 µg/mL ([1]; 31.0 μg/ml)?
Answer: The activation at 31 µg/mL was 28%.

Question: And the activation at 100 µg/mL ([1]; 100 μg/ml)?
Answer: Its activation at 100 µg/mL is 45%.

Question: And the activation at 310 µg/mL ([1]; 310 μg/ml)?
Answer: Its activation at 310 µg/mL is 88%.

Question: What about the positive inotropic effect [1] of the same compound?
Answer: The positive inotropic effect was “exhibit positive inotropic effect”.

Question: And the inhibition of phosphodiesterase (phosphodiesterase)?
Answer: The inhibition of phosphodiesterase was “inhibit phosphodiesterase markedly”.

Question: With `CCCCNc1ncnc2c1nc(SC)n2[C@@H]1O[C@@H]2COP(=O)(O)O[C@H]2[C@H]1O` [Compound 30, 6-n-Butylamino-8-(methylthio)-9-β-D-ribofuranosylpurine 3',5'-Cyclic Phosphate] as the compound, how does the protein kinase activation (protein kinase) read?
Answer: Its protein kinase activation is “superior to cyclic AMP”.

Question: Which antihypertensive properties [4] does the source give for `CC(=O)O[C@@H]1[C@@H]2OP(=O)(O)OC[C@H]2O[C@H]1n1c(Sc2ccc(Cl)cc2)nc2c(Cl)ncnc21` [Compound 33, 2'-O-Acetyl-6-chloro-8-(p-chlorophenylthio)-9-β-D-ribofuranosylpurine 3',5'-Cyclic Phosphate Sodium Salt] here?
Answer: The antihypertensive properties was “displayed antihypertensive properties”.

Question: And the anti-inflammatory activity [5]?
Answer: The anti-inflammatory activity was “displayed anti-inflammatory activity”.

Question: For `CCN(CC)c1ncnc2c1nc(Sc1ccc(Cl)cc1)n2[C@@H]1O[C@@H]2COP(=O)(O)O[C@H]2[C@H]1O` [Compound 35, 8-(p-Chlorophenylthio)-6-(diethylamino)-9-β-D-ribofuranosylpurine 3',5'-Cyclic Phosphate], which inhibition of phosphodiesterase (phosphodiesterase) is on record?
Answer: Its inhibition of phosphodiesterase is “inhibit phosphodiesterase markedly”.

Question: With `O=P1(O)OC[C@H]2O[C@@H](n3c(Br)nc4c(NCc5ccccc5)ncnc43)[C@H](O)[C@@H]2O1` [Compound 42, 6-(Benzylamino)-8-bromo-9-β-D-ribofuranosylpurine 3',5'-Cyclic Phosphate] as the compound, how does the inhibition of phosphodiesterase (phosphodiesterase) read?
Answer: Its inhibition of phosphodiesterase is “inhibit phosphodiesterase markedly”.

Question: For `CSc1nc2c(NCc3ccccc3)ncnc2n1[C@@H]1O[C@@H]2COP(=O)(O)O[C@H]2[C@H]1O` [Compound 43, 6-(Benzylamino)-8-(methylthio)-9-β-D-ribofuranosylpurine 3',5'-Cyclic Phosphate], which inhibition of phosphodiesterase (phosphodiesterase) is on record?
Answer: Its inhibition of phosphodiesterase is “inhibit phosphodiesterase markedly”.

Question: For `O=P1(O)OC[C@H]2O[C@@H](n3c(SCc4ccccc4)nc4c(NCc5ccccc5)ncnc43)[C@H](O)[C@@H]2O1` [Compound 44, 6-(Benzylamino)-8-(benzylthio)-9-β-D-ribofuranosylpurine 3',5'-Cyclic Phosphate], which inhibition of phosphodiesterase (phosphodiesterase) is on record?
Answer: The inhibition of phosphodiesterase was “inhibit phosphodiesterase markedly”.

Question: Which inhibition of phosphodiesterase (phosphodiesterase) does the source give for `CN(C)c1nc(N)nc2c1nc(Cl)n2[C@@H]1O[C@@H]2COP(=O)(O)O[C@H]2[C@H]1O` [Compound 56, 2-Amino-8-chloro-6-dimethylamino-9-β-D-ribofuranosylpurine 3',5'-Cyclic Phosphate] here?
Answer: The inhibition of phosphodiesterase was “inhibit phosphodiesterase markedly”.
